# Laboratory results published in ChEMBL document CHEMBL1201862, “PubChem BioAssay data set” (2004).
# Activity calls are given as the source filed them.
# Key:
# Melanocortin receptor 4 = Melanocortin receptor 4 (Homo sapiens, UniProt P32245); format: functional, cell-based;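 note: Cell-based assay with luminescence read-out, confirmatory dose-response testing for agonist activity of biased ligands at MC4R; human U2OS cells with tagged receptor and beta-arrestin; potency of agonists that increase receptor coupling to beta-arrestin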
# Chain of Melanocortin receptor 4 (P32245 whole entry): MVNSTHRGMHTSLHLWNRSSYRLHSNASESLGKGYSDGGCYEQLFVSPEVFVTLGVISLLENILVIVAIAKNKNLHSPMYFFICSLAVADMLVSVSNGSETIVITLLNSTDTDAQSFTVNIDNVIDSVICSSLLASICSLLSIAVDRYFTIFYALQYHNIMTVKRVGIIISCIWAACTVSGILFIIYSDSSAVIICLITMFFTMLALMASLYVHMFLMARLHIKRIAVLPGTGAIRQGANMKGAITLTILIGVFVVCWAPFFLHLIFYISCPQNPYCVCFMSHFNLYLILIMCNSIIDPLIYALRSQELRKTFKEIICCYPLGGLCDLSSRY
# [1] = molecular target: Vascular endothelial growth factor receptor 2 (Homo sapiens, UniProt P35968); format: functional
# Chain of Vascular endothelial growth factor receptor 2 (P35968 whole entry): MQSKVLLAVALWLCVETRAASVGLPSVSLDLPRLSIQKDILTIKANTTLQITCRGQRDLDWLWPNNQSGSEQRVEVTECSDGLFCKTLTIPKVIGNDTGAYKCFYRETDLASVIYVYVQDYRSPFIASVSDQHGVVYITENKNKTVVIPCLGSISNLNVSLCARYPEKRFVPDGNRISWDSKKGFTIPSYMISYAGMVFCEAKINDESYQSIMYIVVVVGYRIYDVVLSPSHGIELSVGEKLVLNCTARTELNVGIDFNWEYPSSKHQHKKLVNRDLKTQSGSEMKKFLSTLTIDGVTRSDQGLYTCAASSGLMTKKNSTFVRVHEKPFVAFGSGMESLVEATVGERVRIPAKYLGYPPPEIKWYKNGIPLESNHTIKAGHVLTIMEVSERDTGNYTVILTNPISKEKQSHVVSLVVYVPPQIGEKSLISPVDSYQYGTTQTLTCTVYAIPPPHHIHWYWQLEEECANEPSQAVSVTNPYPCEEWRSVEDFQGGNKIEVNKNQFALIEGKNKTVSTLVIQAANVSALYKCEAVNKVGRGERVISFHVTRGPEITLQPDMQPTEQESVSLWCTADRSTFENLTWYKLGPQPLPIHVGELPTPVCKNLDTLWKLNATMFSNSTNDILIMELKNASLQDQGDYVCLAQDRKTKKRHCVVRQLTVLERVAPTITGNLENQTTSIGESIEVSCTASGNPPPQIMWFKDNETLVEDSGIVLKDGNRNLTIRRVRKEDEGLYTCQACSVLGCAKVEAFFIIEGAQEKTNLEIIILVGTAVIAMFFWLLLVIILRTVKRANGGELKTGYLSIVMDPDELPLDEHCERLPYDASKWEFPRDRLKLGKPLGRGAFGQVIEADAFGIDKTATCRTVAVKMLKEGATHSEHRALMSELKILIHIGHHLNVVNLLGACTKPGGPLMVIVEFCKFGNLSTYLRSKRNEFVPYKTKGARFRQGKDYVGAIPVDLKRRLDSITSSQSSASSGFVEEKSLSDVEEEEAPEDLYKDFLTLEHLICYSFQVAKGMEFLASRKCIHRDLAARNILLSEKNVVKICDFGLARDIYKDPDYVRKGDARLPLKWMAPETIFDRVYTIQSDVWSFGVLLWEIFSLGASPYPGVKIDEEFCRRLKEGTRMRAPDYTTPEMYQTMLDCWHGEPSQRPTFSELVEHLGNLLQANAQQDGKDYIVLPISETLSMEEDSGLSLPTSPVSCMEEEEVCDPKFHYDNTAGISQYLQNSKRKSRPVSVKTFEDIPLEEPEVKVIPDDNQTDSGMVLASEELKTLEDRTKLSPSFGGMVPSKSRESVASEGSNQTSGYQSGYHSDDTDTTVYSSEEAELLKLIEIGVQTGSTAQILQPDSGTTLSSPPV
# Aurora kinase B = Aurora kinase B (Homo sapiens, UniProt Q96GD4); format: functional
# Chain of Aurora kinase B (Q96GD4 whole entry): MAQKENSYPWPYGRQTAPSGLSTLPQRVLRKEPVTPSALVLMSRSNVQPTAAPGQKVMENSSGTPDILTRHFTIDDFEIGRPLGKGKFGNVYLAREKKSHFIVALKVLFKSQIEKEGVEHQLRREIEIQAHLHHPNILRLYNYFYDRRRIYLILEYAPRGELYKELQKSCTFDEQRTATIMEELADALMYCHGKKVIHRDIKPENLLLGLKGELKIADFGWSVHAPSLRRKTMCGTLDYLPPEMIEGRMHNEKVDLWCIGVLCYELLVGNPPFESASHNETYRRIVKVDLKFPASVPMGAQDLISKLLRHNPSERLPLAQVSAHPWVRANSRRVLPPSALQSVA
# Aurora kinase A = Aurora kinase A (Homo sapiens, UniProt O14965); format: functional;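 note: value from the Navigating the Kinome kinase panel profiling, panel entry STK6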
# Chain of Aurora kinase A (O14965 whole entry): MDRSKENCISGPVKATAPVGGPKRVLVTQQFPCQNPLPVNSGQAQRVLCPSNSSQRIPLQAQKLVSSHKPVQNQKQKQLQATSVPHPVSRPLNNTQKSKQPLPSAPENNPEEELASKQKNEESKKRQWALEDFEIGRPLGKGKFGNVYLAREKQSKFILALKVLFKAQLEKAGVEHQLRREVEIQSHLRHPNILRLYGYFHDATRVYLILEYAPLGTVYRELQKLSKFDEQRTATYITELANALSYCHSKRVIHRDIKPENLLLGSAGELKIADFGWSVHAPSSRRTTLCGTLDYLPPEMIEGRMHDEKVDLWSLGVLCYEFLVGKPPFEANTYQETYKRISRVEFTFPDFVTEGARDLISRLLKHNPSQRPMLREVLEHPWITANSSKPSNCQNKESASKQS
# [2] = molecular target: Ras and Rab interactor 1/Tyrosine-protein kinase ABL1 (Homo sapiens, UniProt P00519+Q13671); format: functional;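 note: biochemical TR-FRET dose-response test measuring inhibition of binding between Rin1 and Abl proteins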
# Chain of Ras and Rab interactor 1/Tyrosine-protein kinase ABL1 (P00519 whole entry): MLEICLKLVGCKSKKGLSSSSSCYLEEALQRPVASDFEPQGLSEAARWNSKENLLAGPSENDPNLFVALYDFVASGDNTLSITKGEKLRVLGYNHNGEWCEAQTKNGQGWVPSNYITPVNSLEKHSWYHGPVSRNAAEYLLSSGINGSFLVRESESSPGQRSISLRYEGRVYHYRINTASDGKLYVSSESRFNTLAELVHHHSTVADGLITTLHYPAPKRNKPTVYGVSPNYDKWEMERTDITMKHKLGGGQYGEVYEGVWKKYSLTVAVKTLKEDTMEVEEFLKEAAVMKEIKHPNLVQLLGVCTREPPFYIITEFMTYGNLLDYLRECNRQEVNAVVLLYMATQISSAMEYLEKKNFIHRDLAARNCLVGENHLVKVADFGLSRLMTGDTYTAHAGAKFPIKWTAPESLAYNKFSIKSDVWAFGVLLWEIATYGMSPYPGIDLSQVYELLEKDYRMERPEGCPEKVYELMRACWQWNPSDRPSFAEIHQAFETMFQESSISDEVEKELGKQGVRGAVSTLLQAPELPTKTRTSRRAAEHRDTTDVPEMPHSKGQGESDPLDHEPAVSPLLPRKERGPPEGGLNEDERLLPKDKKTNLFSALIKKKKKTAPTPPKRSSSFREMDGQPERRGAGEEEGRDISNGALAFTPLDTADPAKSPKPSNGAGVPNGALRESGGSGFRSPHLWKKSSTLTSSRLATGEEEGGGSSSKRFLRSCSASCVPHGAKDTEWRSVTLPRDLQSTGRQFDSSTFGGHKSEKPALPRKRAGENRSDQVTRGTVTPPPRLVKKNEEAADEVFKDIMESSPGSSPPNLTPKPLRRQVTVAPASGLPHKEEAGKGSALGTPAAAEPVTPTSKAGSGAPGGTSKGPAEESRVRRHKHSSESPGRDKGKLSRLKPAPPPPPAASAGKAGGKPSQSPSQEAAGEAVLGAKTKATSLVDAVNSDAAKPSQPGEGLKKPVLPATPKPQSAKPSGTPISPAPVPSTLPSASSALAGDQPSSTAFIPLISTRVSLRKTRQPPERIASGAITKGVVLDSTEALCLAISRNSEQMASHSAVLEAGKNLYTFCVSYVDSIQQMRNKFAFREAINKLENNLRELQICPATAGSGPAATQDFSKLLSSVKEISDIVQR
# Chain of Ras and Rab interactor 1/Tyrosine-protein kinase ABL1 (Q13671 whole entry): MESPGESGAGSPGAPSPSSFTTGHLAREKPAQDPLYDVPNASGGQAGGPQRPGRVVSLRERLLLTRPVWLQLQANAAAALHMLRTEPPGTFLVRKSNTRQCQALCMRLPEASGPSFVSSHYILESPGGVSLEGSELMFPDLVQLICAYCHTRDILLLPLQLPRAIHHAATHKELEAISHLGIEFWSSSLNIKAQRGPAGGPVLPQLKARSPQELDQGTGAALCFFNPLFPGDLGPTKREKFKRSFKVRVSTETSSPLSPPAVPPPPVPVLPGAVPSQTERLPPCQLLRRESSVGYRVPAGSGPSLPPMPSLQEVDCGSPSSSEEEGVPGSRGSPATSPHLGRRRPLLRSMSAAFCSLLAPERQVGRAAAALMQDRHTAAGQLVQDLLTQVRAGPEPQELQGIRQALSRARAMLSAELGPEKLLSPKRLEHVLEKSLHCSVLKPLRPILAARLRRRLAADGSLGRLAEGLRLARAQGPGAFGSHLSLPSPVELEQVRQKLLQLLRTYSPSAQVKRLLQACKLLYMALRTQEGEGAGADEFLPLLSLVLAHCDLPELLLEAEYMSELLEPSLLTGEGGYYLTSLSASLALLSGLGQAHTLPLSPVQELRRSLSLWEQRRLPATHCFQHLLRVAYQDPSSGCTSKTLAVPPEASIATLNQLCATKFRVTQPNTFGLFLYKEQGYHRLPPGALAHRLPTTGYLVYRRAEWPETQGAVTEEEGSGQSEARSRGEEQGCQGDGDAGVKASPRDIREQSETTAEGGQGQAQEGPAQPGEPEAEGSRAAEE
# [3] = molecular target: T1, Orexin/Hypocretin receptor type 1 (Homo sapiens, UniProt O43613); test: Fluorescence-based cell-based high throughput dose response assay for antagonists of the orexin 1 receptor (OX1R; HCRTR1). [Related pubchem assays (depositor defined):AID434989, AID435008, AID463079, AID485270, AID492963, AID492964, AID492965, AID493232, AID504717, AID504718]; format: functional
# T1 sequence (O43613 whole entry): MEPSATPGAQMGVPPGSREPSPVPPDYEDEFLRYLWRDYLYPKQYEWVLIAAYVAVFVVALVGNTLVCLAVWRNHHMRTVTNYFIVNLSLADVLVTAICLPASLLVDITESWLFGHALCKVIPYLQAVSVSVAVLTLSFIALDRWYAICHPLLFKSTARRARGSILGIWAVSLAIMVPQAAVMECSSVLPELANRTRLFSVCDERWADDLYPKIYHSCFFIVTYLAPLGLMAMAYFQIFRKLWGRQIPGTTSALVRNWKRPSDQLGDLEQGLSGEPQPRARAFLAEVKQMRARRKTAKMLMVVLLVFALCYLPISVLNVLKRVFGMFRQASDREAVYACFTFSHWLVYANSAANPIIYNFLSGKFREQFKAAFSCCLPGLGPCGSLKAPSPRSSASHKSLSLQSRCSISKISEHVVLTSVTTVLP
# [4] = Counterscreen for antagonists of the orexin 1 receptor (OX1R; HCRTR1): Fluorescence-based cell-based high throughput dose response assay to identify antagonists of the parental CHO cell line. [Related pubchem assays (depositor defined):AID434989, AID435008, AID463079, AID485270, AID492963, AID492964, AID492965, AID493232, AID504699, AID504701]; format: functional
# Orexin receptor type 2 [5] = molecular target: T2, Orexin receptor type 2 (Homo sapiens, UniProt O43614); test: Counterscreen assay for antagonists of the orexin 1 receptor (OX1R; HCRTR1): Fluorescence-based cell-based dose response assay for antagonists of the orexin 2 receptor (OX2R; HCRTR2), run by assay provider.; format: functional
# T2 sequence (O43614 whole entry): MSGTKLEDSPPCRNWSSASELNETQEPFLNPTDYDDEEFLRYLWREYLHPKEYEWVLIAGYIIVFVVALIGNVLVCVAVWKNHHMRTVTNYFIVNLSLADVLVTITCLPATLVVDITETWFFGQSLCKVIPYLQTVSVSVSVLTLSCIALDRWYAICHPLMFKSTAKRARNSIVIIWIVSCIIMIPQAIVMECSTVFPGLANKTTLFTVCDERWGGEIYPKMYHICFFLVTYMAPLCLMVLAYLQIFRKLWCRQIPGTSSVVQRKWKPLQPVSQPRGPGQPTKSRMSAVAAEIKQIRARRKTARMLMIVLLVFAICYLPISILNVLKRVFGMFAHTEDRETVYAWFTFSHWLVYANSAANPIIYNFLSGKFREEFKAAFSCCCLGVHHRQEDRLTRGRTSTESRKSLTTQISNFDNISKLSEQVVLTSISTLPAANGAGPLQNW
# Orexin receptor type 2 [6] = molecular target: T2, Orexin receptor type 2; test: Counterscreen assay for antagonists of the orexin 1 receptor (OX1R; HCRTR1): Homogeneous Time Resolved Fluorescence (HTRF)-based cell-based dose response assay for antagonists of the orexin 2 receptor (OX2R; HCRTR2), run by assay provider.; format: functional
# CHO-K1 = test: Counterscreen for antagonists of the orexin 1 receptor (OX1R; HCRTR1): Homogeneous time resolved fluorescence (HTRF)-based cell-based dose response assay to identify antagonists of the parental CHO-K1 cell line. [Related pubchem assays (depositor defined):AID434989, AID435008, AID463079, AID485270, AID492963, AID492964, AID492965, AID493232, AID504699, AID504701]; format: functional; details: Cricetulus griseus;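 note: potency for inhibition of ATP-stimulated IP1 production as antagonists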
# [7] = Luminescence Cell-Based Dose Response HTS to Identify Activators of Luciferase Translation or Activity in H4 […] Cells. [Related pubchem assays: 1829 (Project Summary), 1814 (Primary HTS)]; format: functional
# [8] = molecular target: T1, Orexin/Hypocretin receptor type 1; test: Homogeneous Time Resolved Fluorescence (HTRF)-based cell-based high throughput dose response assay for antagonists of the orexin 1 receptor (OX1R; HCRTR1). [Related pubchem assays (depositor defined):AID434989, AID435008, AID463079, AID485270, AID492963, AID492964, AID492965, AID493232, AID504717, AID504718]; format: functional
# H4 = test: Luminescence Cell-Based Dose Response HTS to Identify Activators of 5'UTR Stem-Loop Driven Prion Protein mRNA Translation in H4 Neuroglioblastoma Cells. [Related pubchem assays: 1829 (Project Summary), 1814 (Primary HTS)]; format: functional; details: Homo sapiens
# [9] = Luminescence Cell-Based Dose Confirmation HTS to Identify Activators of 5'UTR Stem-Loop Driven Alpha-Synuclein mRNA Translation in H4 Neuroglioblastoma Cells. [Related pubchem assays: 1829 (Project Summary), 1814 (Primary HTS)]; format: functional
# [10] = molecular target: T3, Sentrin-specific protease 7 (Homo sapiens, UniProt Q9BQF6); test: SENP7 protease inhibitors, SAR follow-up, biochemical, luminescence, set 2 (AID 588600); format: functional
# T3 sequence (Q9BQF6 whole entry): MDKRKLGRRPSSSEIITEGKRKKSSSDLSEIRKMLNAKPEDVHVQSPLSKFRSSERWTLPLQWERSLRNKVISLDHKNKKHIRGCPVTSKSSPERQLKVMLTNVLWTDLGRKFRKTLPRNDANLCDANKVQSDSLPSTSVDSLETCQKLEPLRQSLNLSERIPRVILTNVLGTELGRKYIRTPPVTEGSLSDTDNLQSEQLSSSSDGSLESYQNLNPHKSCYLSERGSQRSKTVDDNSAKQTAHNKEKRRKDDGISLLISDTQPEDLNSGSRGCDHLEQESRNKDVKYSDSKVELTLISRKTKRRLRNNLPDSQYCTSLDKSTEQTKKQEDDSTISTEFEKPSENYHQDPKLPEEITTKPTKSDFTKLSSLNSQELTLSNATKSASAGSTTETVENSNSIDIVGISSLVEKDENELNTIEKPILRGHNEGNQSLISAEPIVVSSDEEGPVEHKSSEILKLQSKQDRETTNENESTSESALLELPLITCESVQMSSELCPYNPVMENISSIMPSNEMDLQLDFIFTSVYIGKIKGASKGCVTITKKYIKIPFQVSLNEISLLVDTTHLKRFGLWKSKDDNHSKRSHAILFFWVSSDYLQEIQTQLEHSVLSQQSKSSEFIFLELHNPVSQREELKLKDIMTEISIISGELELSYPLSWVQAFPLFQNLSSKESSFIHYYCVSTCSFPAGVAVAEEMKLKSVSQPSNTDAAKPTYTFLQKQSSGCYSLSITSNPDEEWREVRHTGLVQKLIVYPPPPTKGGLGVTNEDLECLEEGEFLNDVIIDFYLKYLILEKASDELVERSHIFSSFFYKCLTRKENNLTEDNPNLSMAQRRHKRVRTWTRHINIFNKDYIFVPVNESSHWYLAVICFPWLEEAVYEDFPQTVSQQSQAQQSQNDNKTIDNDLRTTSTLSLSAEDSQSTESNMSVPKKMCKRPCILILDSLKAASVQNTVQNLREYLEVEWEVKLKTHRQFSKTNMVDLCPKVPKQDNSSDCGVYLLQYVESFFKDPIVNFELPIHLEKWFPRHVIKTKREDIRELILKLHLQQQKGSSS
# Caspase-3 = molecular target: T4, Caspase-3 (Homo sapiens, UniProt P42574); test: caspase-3 inhibitors as off-family protease, SAR follow-up, selectivity assay for SENP protease inhibitor project, biochemical, luminescence, set 2 (AID 588599); format: functional
# T4 sequence (P42574 whole entry): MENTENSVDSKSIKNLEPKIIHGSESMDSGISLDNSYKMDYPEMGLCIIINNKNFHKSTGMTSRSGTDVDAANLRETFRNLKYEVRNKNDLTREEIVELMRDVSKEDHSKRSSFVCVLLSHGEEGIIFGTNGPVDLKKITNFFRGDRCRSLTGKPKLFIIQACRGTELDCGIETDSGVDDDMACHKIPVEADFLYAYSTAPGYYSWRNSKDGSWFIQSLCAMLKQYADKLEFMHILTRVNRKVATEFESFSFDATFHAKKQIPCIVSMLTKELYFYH
# [11] = molecular target: T5, Sentrin-specific protease 6 (Homo sapiens, UniProt Q9GZR1); test: SENP6 protease inhibitors, SAR follow-up, biochemical, luminescence, set 2 (AID 588598); format: functional
# T5 sequence (Q9GZR1 whole entry): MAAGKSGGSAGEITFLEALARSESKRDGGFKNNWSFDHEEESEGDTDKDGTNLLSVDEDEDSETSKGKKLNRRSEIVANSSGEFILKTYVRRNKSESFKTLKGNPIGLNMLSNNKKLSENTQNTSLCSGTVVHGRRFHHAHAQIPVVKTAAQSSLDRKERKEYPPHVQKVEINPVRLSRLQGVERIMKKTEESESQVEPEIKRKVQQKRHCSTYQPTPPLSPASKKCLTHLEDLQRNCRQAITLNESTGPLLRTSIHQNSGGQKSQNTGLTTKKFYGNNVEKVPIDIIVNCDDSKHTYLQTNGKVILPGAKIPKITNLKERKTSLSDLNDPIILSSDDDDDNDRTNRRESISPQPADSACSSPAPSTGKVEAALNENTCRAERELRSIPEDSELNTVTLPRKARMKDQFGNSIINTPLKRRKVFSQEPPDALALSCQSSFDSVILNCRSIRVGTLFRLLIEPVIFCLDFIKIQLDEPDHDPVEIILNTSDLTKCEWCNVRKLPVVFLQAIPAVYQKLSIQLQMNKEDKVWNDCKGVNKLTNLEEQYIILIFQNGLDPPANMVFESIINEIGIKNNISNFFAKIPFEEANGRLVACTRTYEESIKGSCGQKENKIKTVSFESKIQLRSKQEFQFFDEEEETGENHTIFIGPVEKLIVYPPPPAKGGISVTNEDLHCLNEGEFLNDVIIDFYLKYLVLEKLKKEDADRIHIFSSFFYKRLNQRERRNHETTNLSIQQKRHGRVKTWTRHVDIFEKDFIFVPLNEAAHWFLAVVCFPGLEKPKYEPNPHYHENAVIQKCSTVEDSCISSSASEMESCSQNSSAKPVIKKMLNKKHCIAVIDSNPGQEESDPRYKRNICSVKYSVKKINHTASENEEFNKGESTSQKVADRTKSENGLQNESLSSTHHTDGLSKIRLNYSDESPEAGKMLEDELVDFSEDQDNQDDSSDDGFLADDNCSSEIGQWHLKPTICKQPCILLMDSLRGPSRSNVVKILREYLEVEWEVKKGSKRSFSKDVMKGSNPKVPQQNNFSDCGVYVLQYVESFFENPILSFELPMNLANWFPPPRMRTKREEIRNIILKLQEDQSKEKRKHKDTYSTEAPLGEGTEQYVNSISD
# [12] = molecular target: T6, Sentrin-specific protease 8 (Homo sapiens, UniProt Q96LD8); test: SENP8 protease inhibitors, SAR follow-up, biochemical, luminescence, set 2 (AID 588601); format: functional
# T6 sequence (Q96LD8 whole entry): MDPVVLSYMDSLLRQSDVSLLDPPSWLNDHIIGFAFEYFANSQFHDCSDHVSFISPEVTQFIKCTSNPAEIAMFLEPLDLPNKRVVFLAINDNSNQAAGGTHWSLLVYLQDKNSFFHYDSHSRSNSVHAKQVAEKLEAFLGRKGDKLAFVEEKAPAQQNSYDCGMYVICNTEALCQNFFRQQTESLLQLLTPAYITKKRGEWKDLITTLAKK
structure (smiles),measurement,setting,value
NC(Cc1ccc(C(F)(F)F)cc1)c1csc(NC(=O)Nc2ccccc2Cl)n1 (stereo not given),EC50,Melanocortin receptor 4,> 89.2 µM (inactive)
Cc1ccc(-c2c(C#N)c(N)nc3cc(C)nn23)cc1,Ki,[1],3.98 µM (active)
same,Ki,Aurora kinase B,0.1 µM (active)
same,Ki,Aurora kinase A,0.501 µM (active)
COC(=O)c1ccc(COC(=O)C2CCN(S(=O)(=O)c3ccc(C)c(C)c3)CC2)o1,IC50,[2],12.4 µM (inactive)
CCn1c2ccccc2c2cc(NC(=O)c3cccc(OC)c3)ccc21,IC50,[3],0.965 µM (active)
same,IC50,[4],> 49.8 µM (inactive)
same,IC50,Orexin receptor type 2 [5],77.6 µM (inactive)
same,IC50,Orexin receptor type 2 [6],> 50 µM (inactive)
same,IC50,CHO-K1,> 66.2 µM (inactive)
same,EC50,[7],56.6 µM (active)
same,IC50,[8],0.2 µM (active)
same,EC50,H4,40.1 µM (active)
same,EC50,[9],34.8 µM (active)
Cc1nc2c(-c3ccc(Cl)cc3)cnn2c2c1CCC2,IC50,[3],15 µM (inactive)
same,IC50,[4],> 49.8 µM (inactive)
same,IC50,Orexin receptor type 2 [5],> 88.8 µM (inactive)
same,IC50,Orexin receptor type 2 [6],> 50 µM (inactive)
same,IC50,CHO-K1,> 66.3 µM (inactive)
same,EC50,[7],11.1 µM (active)
same,IC50,[8],4.59 µM (active)
same,EC50,H4,24.5 µM (active)
same,EC50,[9],> 120 µM (not active)
CCCCN1CCN(c2ccc(-c3nc4c(C(N)=O)cccc4[nH]3)cn2)CC1,Ki,[1],> 5.01 µM (inactive)
same,Ki,Aurora kinase B,0.0794 µM (active)
same,Ki,Aurora kinase A,1.26 µM (active)
COc1ccc(N2CCN(C(=O)C(=O)c3c(C)[nH]c4ccccc34)CC2)cc1,IC50,[10],> 99 µM (inactive)
same,IC50,Caspase-3,> 99 µM (inactive)
same,IC50,[11],> 99 µM (inactive)
same,IC50,[12],> 99 µM (inactive)
